Results from PubChem BioAssay AID1918944 (Molecular Pharmacology Branch, DTP, NCI, 2023).
Several values for one entry are separate records, joined by “and”; a condition that tells them apart may be missing. Equal values may be shown once.

Test system: 786-0 complex spheroid viability
Assay: Anticancer human tumor 786-0 cell line growth inhibition;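 note: spheroids exposed to agents for seven days before readout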
Conditions: for viability, T/C: stronger effect = lower value
Method in brief: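 Complex spheroids of tumor cells with HUVEC and human MSCs, exposed to iadademstat combined with other agents. Each agent tested in half-log steps from near clinical Cmax (else 10 microM top), DMSO ≤0.25%.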

[1] = curve of first compound, second compound 0.1 µM
[2] = curve of first compound, second compound 0.316 µM
[3] = curve of first compound, second compound 1 µM
[4] = curve of first compound, second compound 3.16 µM
[5] = curve of first compound, second compound 10 µM
[6] = second compound 0.1 µM, first compound 0.000316 µM
[7] = second compound 0.1 µM, first compound 0.001 µM
[8] = second compound 0.1 µM, first compound 0.00316 µM
[9] = second compound 0.1 µM, first compound 0.01 µM
[10] = second compound 0.1 µM, first compound 0.0316 µM
[11] = second compound 0.1 µM, first compound 0.1 µM
[12] = second compound 0.316 µM, first compound 0.000316 µM
[13] = second compound 0.316 µM, first compound 0.001 µM
[14] = second compound 0.316 µM, first compound 0.00316 µM
[15] = second compound 0.316 µM, first compound 0.01 µM
[16] = second compound 0.316 µM, first compound 0.0316 µM
[17] = second compound 0.316 µM, first compound 0.1 µM
[18] = second compound 1 µM, first compound 0.000316 µM
[19] = second compound 1 µM, first compound 0.001 µM
[20] = second compound 1 µM, first compound 0.00316 µM
[21] = second compound 1 µM, first compound 0.01 µM
[22] = second compound 1 µM, first compound 0.0316 µM
[23] = second compound 1 µM, first compound 0.1 µM
[24] = second compound 3.16 µM, first compound 0.000316 µM
[25] = second compound 3.16 µM, first compound 0.001 µM
[26] = second compound 3.16 µM, first compound 0.00316 µM
[27] = second compound 3.16 µM, first compound 0.01 µM
[28] = second compound 3.16 µM, first compound 0.0316 µM
[29] = second compound 3.16 µM, first compound 0.1 µM
[30] = second compound 10 µM, first compound 0.000316 µM
[31] = second compound 10 µM, first compound 0.001 µM
[32] = second compound 10 µM, first compound 0.00316 µM
[33] = second compound 10 µM, first compound 0.01 µM
[34] = second compound 10 µM, first compound 0.0316 µM
[35] = second compound 10 µM, first compound 0.1 µM

SMILES	IC50 [1] [nM]	IC50 [2] [nM]	IC50 [3] [nM]	IC50 [4] [nM]	IC50 [5] [nM]	viability, T/C [6] [%]	viability, T/C [7] [%]	viability, T/C [8] [%]	viability, T/C [9] [%]	viability, T/C [10] [%]	viability, T/C [11] [%]	viability, T/C [12] [%]	viability, T/C [13] [%]	viability, T/C [14] [%]	viability, T/C [15] [%]	viability, T/C [16] [%]	viability, T/C [17] [%]	viability, T/C [18] [%]	viability, T/C [19] [%]	viability, T/C [20] [%]	further results
CC[C@@]1(O)C(=O)OCc2c1cc1n(c2=O)Cc2cc3c(CN(C)C)c(O)ccc3nc2-1 + NC1CC1c1ccc(-c2cccc(O)c2)cc1	5.02	4.87	4.86	4.67	4.02	112	109	74.6	13.2	6.23	2.94	109	105	73.6	10.7	4.65	3.46	119	109	73.4	viability, T/C [21]: 10.8%; viability, T/C [22]: 4.54%; viability, T/C [23]: 2.99%; viability, T/C [24]: 107%; viability, T/C [25]: 107%; viability, T/C [26]: 70%; viability, T/C [27]: 10.8%; viability, T/C [28]: 5.39%; viability, T/C [29]: 2.22%; viability, T/C [30]: 104%; viability, T/C [31]: 109%; viability, T/C [32]: 61%; viability, T/C [33]: 8.93%; viability, T/C [34]: 3.25%; viability, T/C [35]: 2.9%
Cn1ncnc1C1c2n[nH]c(=O)c3cc(F)cc(c23)NC1c1ccc(F)cc1 (configuration not stated) + NC1CC1c1ccc(-c2cccc(O)c2)cc1	> 100	> 100	> 100	> 100	> 100	95.4	94.4	95	91.9	92.4	89.3	102	102	101	91	94.3	95.9	93.3	94.5	90.6	viability, T/C [21]: 86.9%; viability, T/C [22]: 81.5%; viability, T/C [23]: 85%; viability, T/C [24]: 88.4%; viability, T/C [25]: 92.1%; viability, T/C [26]: 90.9%; viability, T/C [27]: 87.8%; viability, T/C [28]: 85.2%; viability, T/C [29]: 76.4%; viability, T/C [30]: 80.7%; viability, T/C [31]: 87%; viability, T/C [32]: 84.3%; viability, T/C [33]: 83.2%; viability, T/C [34]: 79.8%; viability, T/C [35]: 74.5%
O=C(C=Cc1cccc(S(=O)(=O)Nc2ccccc2)c1)NO																					viability, T/C (compound 0.00949 µM): 96.4% and 90.1%; viability, T/C (compound 0.03 µM): 94.9% and 96.3%; viability, T/C (compound 0.0949 µM): 98.5% and 102%; viability, T/C (compound 0.3 µM): 93.5% and 98.6%; viability, T/C (compound 0.949 µM): 48.6% and 73.1%; viability, T/C (compound 3 µM): 6.1% and 9.6%; IC50 (curve of compound): 915 nM and 1440 nM
